Where two headings read alike, the source gives them in different places.

The subject of this experiment is HBsAg in HepG2.2.15 cells. The experiment in a line: HBsAg assay: inhibition of HBsAg in HepG2.2.15 cells (chemiluminescence immunoassay of supernatant). The format is cell-based, hepatitis B virus. How it is done:
Inhibition of HBsAg was determined in HepG2.2.15 cells. Cells were maintained in culture medium containing 10% fetal calf serum, […], Glutamine, penicillin/streptomycin. Cells were seeded in 96-well collagen-coated plate at a density of 30,000 cells/well. Serially diluted compounds were added to cells next day at the final DMSO concentration of 0.5%. Cells were incubated with compounds for 2-3 days, after which medium was removed. Fresh medium containing compounds was added to cells for additional 3-4 days. At day 6 after exposure of compounds, supernatant was collected, the HBsAg immunoassay (microplate-based chemiluminescence immunoassay kits, CLIA, Autobio Diagnosics Co., Zhengzhou, China, Catalog #CL0310-2) was used to determine the level of HBsAg according to manufactory instruction. Dose-response curves were generated and the EC50 value (effective concentrations that achieved 50% inhibitory effect) were determined using XLfit software. In addition, cells were seeded at a density of 5,000 cells/well for determination of cell viability in the presence and absence of compounds by using CellTiter-Glo reagent (Promega).

Where [1] appears, read: read-out: sAg EC50, HepG2.2.15 cells, supernatant collected at day 6 after exposure, HBsAg CLIA.
The mark [2] stands for this setting: Hepatitis B virus, HepG2.2.15, 144 h, read-out: sAg EC50, HepG2.2.15 cells, supernatant collected at day 6 after exposure, HBsAg CLIA.

Turning to `CCC1c2ccccc2CCN1c1cnc(-c2ncccn2)nc1` (single isomer, unassigned) [Example 11, 2-([2,2′-Bipyrimidin]-5-yl)-1-ethyl-1,2,3,4-tetrahydroisoquinoline], the concentration for a half-maximal effect (EC50) under setting [1] is 1400 nM.
In the case of `CCC1c2ccccc2CCN1c1cnc(-c2ncccn2)nc1` (single isomer, unassigned) [Example 12, 2-([2,2′-Bipyrimidin]-5-yl)-1-ethyl-1,2,3,4-tetrahydroisoquinoline], under setting [1], the EC50 is 190 nM.
For the molecule `CCC1c2cc(OC)c(F)c(F)c2CCN1c1cnc(-c2ncccn2)nc1` (single isomer, unassigned) [Example 30, 1-Ethyl-5,6-difluoro-7-methoxy-2-(2-pyrimidin-2-ylpyrimidin-5-yl)-3,4-dihydro-1H-isoquinoline], the EC50 under setting [1] was determined as 130 nM.
As for `CCC1c2cc(OC)c(F)c(F)c2CCN1c1cnc(-c2ncccn2)nc1` (single isomer, unassigned) [Example 31, 1-Ethyl-5,6-difluoro-7-methoxy-2-(2-pyrimidin-2-ylpyrimidin-5-yl)-3,4-dihydro-1H-isoquinoline], the EC50 under setting [1] worked out at 1200 nM.
Same read-out and setting: the same measure for `CCC1c2ccc(F)c(F)c2CCN1c1cnc(-c2ncccn2)nc1` (single isomer, unassigned) [Example 33, 1-Ethyl-5,6-difluoro-2-(2-pyrimidin-2-ylpyrimidin-5-yl)-3,4-dihydro-1H-isoquinoline]: 390 nM.
Still for that read-out and setting: the value for `CCC1c2ccc(F)c(F)c2CCN1c1cnc(-c2ncccn2)nc1` (single isomer, unassigned) [Example 34, 1-Ethyl-5,6-difluoro-2-(2-pyrimidin-2-ylpyrimidin-5-yl)-3,4-dihydro-1H-isoquinoline] was 160 nM; that for `CC1c2ccc(F)c(F)c2CCN1c1ccnc(-c2ncccn2)n1` (single isomer, unassigned) [Example 37, 2-([2,2′-Bipyrimidin]-4-yl)-5,6-difluoro-1-methyl-1,2,3,4-tetrahydroisoquinoline] was 310 nM; that for `CC1c2ccc(F)c(F)c2CCN1c1ccnc(-c2ncccn2)n1` (single isomer, unassigned) [Example 38, 2-([2,2′-Bipyrimidin]-4-yl)-5,6-difluoro-1-methyl-1,2,3,4-tetrahydroisoquinoline] was 1400 nM.
On the same count and under the same terms, the same measure for `CCC1c2ccc(F)c(F)c2CCN1c1ccnc(-c2ncccn2)n1` (single isomer, unassigned) [Example 40, 1-Ethyl-5,6-difluoro-2-(2-pyrimidin-2-ylpyrimidin-4-yl)-3,4-dihydro-1H-isoquinoline]: 500 nM; for `CCC1c2ccc(F)c(F)c2CCN1c1ccnc(-c2ncccn2)n1` (single isomer, unassigned) [Example 41, 1-Ethyl-5,6-difluoro-2-(2-pyrimidin-2-ylpyrimidin-4-yl)-3,4-dihydro-1H-isoquinoline]: 2600 nM; for `CCC1c2c(OC)ccc(F)c2CCN1c1ccnc(-c2ncccn2)n1` (single isomer, unassigned) [Example 43, 1-Ethyl-5-fluoro-8-methoxy-2-(2-pyrimidin-2-ylpyrimidin-4-yl)-3,4-dihydro-1H-isoquinoline]: 60 nM.
For `CCC1c2c(OC)ccc(F)c2CCN1c1ccnc(-c2ncccn2)n1` (single isomer, unassigned) [Example 44, 1-Ethyl-5-fluoro-8-methoxy-2-(2-pyrimidin-2-ylpyrimidin-4-yl)-3,4-dihydro-1H-isoquinoline], the half-maximal effective concentration (EC50) under setting [1] is 7000 nM.
Same read-out and setting: the same measure for `CCC1c2cc(F)c(F)cc2CN1c1ccnc(-c2ncccn2)n1` (single isomer, unassigned) [Example 49, 2-([2,2′-Bipyrimidin]-4-yl)-1-ethyl-5,6-difluoroisoindoline]: 44 nM.
As to `CCC1c2cc(F)c(F)cc2CN1c1ccnc(-c2ncccn2)n1` (single isomer, unassigned) [Example 50, 2-([2,2′-Bipyrimidin]-4-yl)-1-ethyl-5,6-difluoroisoindoline], the EC50 under setting [1] came out at 400 nM.
In the case of `CCC1c2cc(OC)c(OC)cc2CN1c1ccnc(-c2ncccn2)n1` (single isomer, unassigned) [Example 56, 2-([2,2′-Bipyrimidin]-4-yl)-1-ethyl-5,6-dimethoxyisoindoline], the EC50 under setting [1] worked out at 12 nM.
On the same count and under the same terms, the value for `CCC1c2cc(OC)c(OC)cc2CN1c1ccnc(-c2ncccn2)n1` (single isomer, unassigned) [Example 57, 2-([2,2′-Bipyrimidin]-4-yl)-1-ethyl-5,6-dimethoxyisoindoline] was 76 nM; that for `CCC1c2cc(F)c(OC)cc2CN1c1ccnc(-c2ncccn2)n1` (single isomer, unassigned) [Example 64, 2-([2,2′-Bipyrimidin]-4-yl)-1-ethyl-6-fluoro-5-methoxyisoindoline] was 12 nM.
Same read-out and setting: the same measure for `CCC1c2cc(F)c(OC)cc2CN1c1ccnc(-c2ncccn2)n1` (single isomer, unassigned) [Example 65, 2-([2,2′-Bipyrimidin]-4-yl)-1-ethyl-6-fluoro-5-methoxyisoindoline]: 230 nM; for `CCC1c2cc(F)c(OC)cc2CN1c1nc(-c2ncccn2)ncc1-c1ccccc1` (single isomer, unassigned) [Example 66, 1-Ethyl-6-fluoro-5-methoxy-2-(5-phenyl-[2,2′-bipyrimidin]-4-yl)isoindoline]: 1000 nM; for `CCC1c2cc(F)c(OC)cc2CN1c1nc(-c2ncccn2)ncc1-c1ccccc1` (single isomer, unassigned) [Example 67, 1-Ethyl-6-fluoro-5-methoxy-2-(5-phenyl-[2,2′-bipyrimidin]-4-yl)isoindoline]: 18000 nM.
With `CCC1c2cc(F)c(OC)cc2CN1c1nc(-c2ncccn2)ncc1C` (single isomer, unassigned) [Example 68, 1-Ethyl-6-fluoro-5-methoxy-2-(5-methyl-[2,2′-bipyrimidin]-4-yl)isoindoline], the EC50 under setting [1] came out at 2 nM.
For `CCC1c2cc(F)c(OC)cc2CN1c1nc(-c2ncccn2)ncc1C` (single isomer, unassigned) [Example 69, 1-Ethyl-6-fluoro-5-methoxy-2-(5-methyl-[2,2′-bipyrimidin]-4-yl)isoindoline], under setting [1], the EC50 is 59 nM.
On the same count and under the same terms, the value for `CCC1c2cc(F)c(OC)cc2CN1c1nc(-c2ncccn2)ncc1F` (single isomer, unassigned) [Example 71, 1-Ethyl-6-fluoro-2-(5-fluoro-[2,2′-bipyrimidin]-4-yl)-5-methoxyisoindoline] was 3 nM; that for `CCC1c2cc(F)c(OC)cc2CN1c1nc(-c2ncccn2)ncc1F` (single isomer, unassigned) [Example 72, 1-Ethyl-6-fluoro-2-(5-fluoro-[2,2′-bipyrimidin]-4-yl)-5-methoxyisoindoline] was 67 nM; that for `CCC1c2cc(F)c(OC)cc2CN1c1nc(-c2ncccn2)ncc1OC` (single isomer, unassigned) [Example 73, 1-Ethyl-6-fluoro-5-methoxy-2-(5-methoxy-[2,2′-bipyrimidin]-4-yl)isoindoline] was 1000 nM.
Regarding `CCC1c2cc(F)c(OC)cc2CN1c1nc(-c2ncccn2)ncc1OC` (single isomer, unassigned) [Example 74, 1-Ethyl-6-fluoro-5-methoxy-2-(5-methoxy-[2,2′-bipyrimidin]-4-yl)isoindoline], the concentration for a half-maximal effect (EC50) under setting [1] turned out to be 8 nM.
For `CCC1c2cc(OC)c(F)cc2CN1c1ccnc(-c2ncccn2)n1` (single isomer, unassigned) [Example 77, 2-([2,2′-Bipyrimidin]-4-yl)-1-ethyl-5-fluoro-6-methoxyisoindoline], the EC50 under setting [2] came to 110 nM.
On to `CCC1c2cc(OC)c(F)cc2CN1c1ccnc(-c2ncccn2)n1` (single isomer, unassigned) [Example 78, 2-([2,2′-Bipyrimidin]-4-yl)-1-ethyl-5-fluoro-6-methoxyisoindoline], for which the EC50 under setting [1] came out at 98 nM.
On to `CCC1c2cc(F)c(OC)cc2CN1c1cnc(-c2ncccn2)nc1` (single isomer, unassigned) [Example 89, 2-([2,2′-Bipyrimidin]-5-yl)-1-ethyl-6-fluoro-5-methoxyisoindoline], for which the EC50 under setting [1] worked out at 8 nM.
For `CCC1c2cc(F)c(OC)cc2CN1c1cnc(-c2ncccn2)nc1` (single isomer, unassigned) [Example 90, 2-([2,2′-Bipyrimidin]-5-yl)-1-ethyl-6-fluoro-5-methoxyisoindoline], under setting [1], the EC50 came to 260 nM.
The same measure, in the same setting: the same measure for `CCC1c2cc(F)c(OC)cc2CN1c1cnc(C(=O)O)nc1` (single isomer, unassigned) [Example 99, 5-(1-Ethyl-6-fluoro-5-methoxyisoindolin-2-yl)pyrimidine-2-carboxylic Acid]: 7000 nM; for `CCC1c2cc(F)c(OC)cc2CN1c1cnc(C(=O)O)nc1` (single isomer, unassigned) [Example 100, 5-(1-Ethyl-6-fluoro-5-methoxyisoindolin-2-yl)pyrimidine-2-carboxylic Acid]: 200 nM.
Take `CCC1c2cc(F)c(OC)cc2CN1c1cnc(C(=O)NS(C)(=O)=O)nc1` (single isomer, unassigned) [Example 102, 5-(1-Ethyl-6-fluoro-5-methoxyisoindolin-2-yl)-N-(methylsulfonyl)pyrimidine-2-carboxamide]: the EC50 under setting [2] is 620 nM.

What is called EC50 is the concentration needed to bring the measured effect to its halfway point.
